Experimental data reported in patent publication US20060069132A1, “Azolecarboxamide herbicides” (priority 2004, published 2006).

Tests used:
[1] = tested on: giant foxtail; assay: Test C pre-/postemergence herbicide test; format: in vivo, Setaria faberi
In short: (§1)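 Pre- and postemergence application, solvent/surfactant formulation; post at 1- to 4-leaf stage (2–18 cm). Greenhouse 12–14 d. Visual rating vs controls, 0 = no effect, 100 = complete control.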

[2] = tested on: ducksalad; assay: Test C flooded paddy test; format: in vivo, Heteranthera limosa; conditions: for Plant response rating, Ducksalad: 500 g ai/ha, visual rating after 12 to 14 days
[3] = tested on: goosegrass; assay: Test C pre-/postemergence herbicide test; format: in vivo, Eleusine indica
In short: as §1

[4] = tested on: redroot pigweed; assay: Test A pre-/postemergence herbicide test; format: in vivo, Amaranthus retroflexus
In short: (§2)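 Visual injury rating on a 0–100 scale (0 no effect, 100 complete control) versus untreated controls, about ten days after treatment in greenhouse. Pre: directed soil spray onto seeded sandy loam. Post: spray to runoff on plants 2–10 cm tall at one- to two-leaf stage.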

[5] = tested on: woolly cupgrass; assay: Test C pre-/postemergence herbicide test; format: in vivo, Eriochloa villosa
In short: as §1

[6] = tested on: large crabgrass; assay: Test C pre-/postemergence herbicide test; format: in vivo, Digitaria sanguinalis
In short: as §1

[7] = tested on: pigweed; assay: Test C pre-/postemergence herbicide test; format: in vivo, Amaranthus retroflexus
In short: as §1

[8] = tested on: bermudagrass; assay: Test C pre-/postemergence herbicide test; format: in vivo, Cynodon dactylon; conditions: for Bermudagrass plant response rating: 500 g ai/ha
In short: as §1

[9] = tested on: giant foxtail; assay: Test A pre-/postemergence herbicide test; format: in vivo, Setaria faberi
In short: as §2

[10] = 125 g ai/ha, scale 0 (no effect) to 100 (complete control), visual, 12 to 14 days, preemergence
[11] = 250 g ai/ha, scale 0 to 100 (0 no effect, 100 complete control), visual, 12 to 14 days, preemergence
[12] = Postemergence, 500 g ai/ha, scale 0 to 100
[13] = Postemergence, 250 g ai/ha, scale 0 to 100, 0 no effect, 100 complete control
[14] = Preemergence, 500 g ai/ha, scale 0 to 100, 0 no effect, 100 complete control
[15] = postemergence, 125 g ai/ha, scale 0 to 100
[16] = postemergence, 62 g ai/ha, scale 0 to 100
[17] = 62 g ai/ha, scale 0 to 100 (0 no effect, 100 complete control)
[18] = 250 g ai/ha, scale of 0 to 100, 0 is no effect, 100 is complete control
[19] = scale 0 to 100 (0 no effect, 100 complete control)
[20] = Postemergence, 500 g ai/ha, 0 to 100 scale, 0 no effect, 100 complete control
[21] = Postemergence, 2000 g ai/ha, 0 to 100 scale, 0 no effect, 100 complete control
[22] = Preemergence, 500 g ai/ha, visual rating, 0 to 100 scale (0 no effect, 100 complete control)
[23] = Preemergence, 2000 g ai/ha, visual rating, 0 to 100 scale (0 no effect, 100 complete control)
[24] = Preemergence, scale 0 to 100, 0 no effect, 100 complete control
[25] = 62 g ai/ha, preemergence, scale 0 to 100
[26] = 250 g ai/ha, scale 0-100, preemergence
[27] = 500 g ai/ha, scale 0 to 100 (0 no effect, 100 complete control), visual, 12 to 14 days, preemergence
[28] = preemergence, 500 g ai/ha, visual injury, 0 to 100 scale (0 no effect, 100 complete control)

CC(=NO)c1cccc(NC(=O)c2cc(C(C)(C)C)nn2CCF)c1 [Compound 115]
40: Plant response rating (0 = no effect, 100 = complete control), Foxtail, Giant ([1]; 62 g ai/ha, preemergence) | Plant response rating, Foxtail, Giant [1, 15] | Plant response rating, Foxtail, Giant [1, 16] | Plant response rating, Goosegrass [3, 16]
95: Pigweed plant response rating [4, 20] | Pigweed plant response rating [4, 22]
75: Ducksalad plant response rating ([2]; 125 g ai/ha, scale of 0 to 100, 0 is no effect, 100 is complete control)
80: Foxtail, Giant plant response rating [1, 12] | Plant response rating, Goosegrass [3, 10] | Plant response rating, Cupgrass, Woolly [5, 11] | Plant response rating, Foxtail, Giant [9, 21] | Foxtail, Giant plant response rating [9, 23]
50: Plant response rating, Cupgrass, Woolly [5, 16] | Foxtail, Giant plant response rating [9, 22]
30: Ducksalad plant response rating [2, 17] | Plant response rating, Cupgrass, Woolly [5, 10]
60: Plant response rating, Foxtail, Giant [1, 13] | Plant response rating, Goosegrass [3, 15] | Plant response rating, Crabgrass, Large [6, 16] | Plant response rating, Bermudagrass [8, 13] | Plant response rating, Bermudagrass [8, 15] | Foxtail, Giant plant response rating [9, 20]
85: Ducksalad plant response rating [2, 18]
70: Plant response rating (0 = no effect, 100 = complete control), Goosegrass ([3]; 62 g ai/ha, preemergence) | Goosegrass plant response rating [3, 12] | Plant response rating, Goosegrass [3, 13] | Cupgrass, Woolly plant response rating [5, 12] | Plant response rating, Cupgrass, Woolly [5, 13] | Plant response rating, Cupgrass, Woolly [5, 15] | Plant response rating, Crabgrass, Large [6, 13] | Plant response rating, Crabgrass, Large [6, 15]
90: Plant response rating, Foxtail, Giant [1, 10] | Plant response rating, Ducksalad [2, 19] | Cupgrass, Woolly plant response rating [5, 14] | Crabgrass, Large plant response rating [6, 12]
20: Plant response rating (0 = no effect, 100 = complete control), Cupgrass, Woolly ([5]; 62 g ai/ha, preemergence)
10: Plant response rating, Bermudagrass [8, 16]
100: Plant response rating, Foxtail, Giant [1, 11] | Foxtail, Giant plant response rating [1, 14] | Goosegrass plant response rating [3, 14] | Plant response rating, Pigweed [4, 21] | Pigweed plant response rating [4, 23] | Plant response rating (0 = no effect, 100 = complete control), Crabgrass, Large ([6]; 62 g ai/ha, preemergence) | Plant response rating, Crabgrass, Large [6, 10] | Plant response rating, Crabgrass, Large [6, 11] | Crabgrass, Large plant response rating [6, 14] | Plant response rating (0 = no effect, 100 = complete control), Pigweed ([7]; 62 g ai/ha, preemergence) | Plant response rating, Pigweed [7, 10] | Pigweed plant response rating [7, 12] | Plant response rating, Pigweed [7, 13] | Pigweed plant response rating [7, 14] | Plant response rating, Pigweed [7, 15] | Plant response rating, Pigweed [7, 16] | Plant response rating (0 = no effect, 100 = complete control), Bermudagrass ([8]; 62 g ai/ha, preemergence) | Plant response rating, Bermudagrass [8, 10] | Plant response rating, Bermudagrass [8, 11] | Bermudagrass plant response rating ([8]; Postemergence, scale 0 to 100) | Bermudagrass plant response rating [8, 24]

CCNC(=O)c1cccc(NC(=O)c2sc(C(C)(C)C)nc2CC)c1 [Compound 210]
95: Plant response rating, Goosegrass [3, 26] | Plant response rating, Goosegrass [3, 27] | Plant response rating, Crabgrass, Large [6, 26]
75: Plant response rating, Foxtail, Giant [9, 21]
0: Plant response rating, Foxtail, Giant [1, 25] | Plant response rating, Cupgrass, Woolly [5, 25] | Plant response rating, Cupgrass, Woolly [5, 10]
100: Pigweed plant response rating [4, 23] | Pigweed plant response rating [4, 28] | Plant response rating, Crabgrass, Large [6, 27] | Plant response rating, Pigweed [7, 25] | Plant response rating, Pigweed [7, 10] | Plant response rating, Pigweed [7, 26] | Plant response rating, Pigweed [7, 27] | Plant response rating, Bermudagrass [8, 26] | Bermudagrass plant response rating [8, 24] | Foxtail, Giant plant response rating [9, 23] | Foxtail, Giant plant response rating [9, 28]
60: Plant response rating, Foxtail, Giant [1, 27] | Pigweed plant response rating [4, 20]
50: Plant response rating, Goosegrass [3, 25]
55: Ducksalad plant response rating ([2]; 125 g ai/ha, scale 0 to 100 (0 no effect, 100 complete control))
10: Plant response rating, Foxtail, Giant [1, 10] | Plant response rating, Foxtail, Giant [1, 26] | Plant response rating, Cupgrass, Woolly [5, 27]
90: Plant response rating, Ducksalad [2, 19]
80: Plant response rating, Goosegrass [3, 10] | Plant response rating, Pigweed [4, 21] | Plant response rating, Crabgrass, Large [6, 25] | Plant response rating, Crabgrass, Large [6, 10] | Plant response rating, Bermudagrass ([8]; 62 g ai/ha, preemergence, scale 0 to 100, 0 no effect, 100 complete control) | Plant response rating, Bermudagrass [8, 10]
40: Ducksalad plant response rating [2, 17] | Foxtail, Giant plant response rating [9, 20]
85: Ducksalad plant response rating [2, 18]
5: Plant response rating, Cupgrass, Woolly [5, 26]
